Laboratory results taken from ChEMBL document CHEMBL1150147, “Bioactive natural products from a sclerotium-colonizing isolate of Humicola fuscoatra” (2002).

Test system: Aspergillus flavus
Test: Antifungal activity against Aspergillus flavus at 200 ug/disk by disk assay
Type: functional
Conditions: read-out: IZ

For `CC(=O)O[C@@H]1C[C@]2(C)C3=C(CC[C@H]2C(C)(C)[C@@H]1O[C@@H]1O[C@H](CO)[C@@H](O)[C@H](O)[C@H]1O)[C@@]1(C)CC[C@](C)([C@H](C)C(C)C)[C@@H](C(=O)O)[C@]1(C)CC3` [FUSCOATROSIDE], the zone of inhibition at 200 µg/disc was 18 mm.
